The values below come from ChEMBL document CHEMBL5550170, “Discovery of novel benzimidazole derivatives as selective and reversible monoamine oxidase B inhibitors for Parkinson's disease treatment” (Eur J Med Chem, 2024).

In test [1] the target is T1, Amine oxidase [flavin-containing] B (Homo sapiens, UniProt P27338).
T1 sequence (P27338 whole entry): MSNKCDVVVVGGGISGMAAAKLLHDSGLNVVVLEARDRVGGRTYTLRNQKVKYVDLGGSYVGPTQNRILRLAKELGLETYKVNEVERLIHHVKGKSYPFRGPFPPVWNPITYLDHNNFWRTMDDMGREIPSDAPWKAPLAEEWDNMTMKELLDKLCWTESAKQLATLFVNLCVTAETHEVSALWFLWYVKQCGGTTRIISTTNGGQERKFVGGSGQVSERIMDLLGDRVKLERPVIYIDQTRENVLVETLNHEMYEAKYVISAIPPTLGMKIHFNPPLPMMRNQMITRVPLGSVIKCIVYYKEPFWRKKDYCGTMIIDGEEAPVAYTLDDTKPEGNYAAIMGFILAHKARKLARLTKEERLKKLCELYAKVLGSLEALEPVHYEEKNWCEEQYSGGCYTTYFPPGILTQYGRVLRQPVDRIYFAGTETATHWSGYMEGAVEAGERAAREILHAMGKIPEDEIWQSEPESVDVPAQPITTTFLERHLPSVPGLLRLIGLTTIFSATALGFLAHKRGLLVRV
The settings on record: 0.5 h, read-out: INH.
Description: Inhibition of human MAO-B at 1 uM preincubated with compound for 10 mins followed by substrate addition and measured after 30 mins relative to control

Test [2] has as its target T1, Amine oxidase [flavin-containing] B.
Description: Inhibition of human MAO-B preincubated with compound for 10 mins followed by substrate addition and measured after 30 mins
The target of test [3] is T2, Amine oxidase [flavin-containing] A (Homo sapiens, UniProt P21397).
T2 sequence (P21397 whole entry): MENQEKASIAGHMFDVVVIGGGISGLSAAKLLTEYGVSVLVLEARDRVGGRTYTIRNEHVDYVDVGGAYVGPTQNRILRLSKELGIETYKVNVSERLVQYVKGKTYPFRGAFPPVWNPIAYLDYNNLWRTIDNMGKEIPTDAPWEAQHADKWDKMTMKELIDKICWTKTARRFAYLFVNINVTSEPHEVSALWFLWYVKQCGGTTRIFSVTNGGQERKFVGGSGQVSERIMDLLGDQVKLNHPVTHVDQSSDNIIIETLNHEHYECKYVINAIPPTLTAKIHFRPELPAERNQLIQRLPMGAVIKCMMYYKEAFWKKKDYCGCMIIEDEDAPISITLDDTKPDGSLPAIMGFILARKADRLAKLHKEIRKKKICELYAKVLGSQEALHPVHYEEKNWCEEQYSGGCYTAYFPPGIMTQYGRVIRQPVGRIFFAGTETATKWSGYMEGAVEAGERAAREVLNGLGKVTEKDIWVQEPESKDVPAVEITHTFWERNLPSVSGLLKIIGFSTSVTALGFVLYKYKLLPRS
Description: Inhibition of human MAO-A preincubated with compound for 10 mins followed by substrate addition and measured after 30 mins

Consider `NC(=O)Cc1nc2cc(C(=O)Nc3cccc(F)c3)ccc2[nH]1`, for which the inhibition at 1 µM in test [1] amounted to 39.6%.
For `NC(=O)Cc1nc2cc(OCc3ccc(C(F)(F)F)cc3)ccc2[nH]1`, in test [1], the inhibition at 1 µM was 52.2%. Besides, the IC50 in test [2] turned out to be 161 nM.
With `NC(=O)Cc1nc2cc(C(=O)Nc3cccc(Cl)c3)ccc2[nH]1`, the inhibition at 1 µM in test [1] came to 47.6%.
Same read-out and setting: the result for `COc1ccc(NC(=O)c2ccc3[nH]c(CC(N)=O)nc3c2)cc1` reads 28.5%.
Still for that read-out and setting: the result for `COc1ccccc1NC(=O)c1ccc2[nH]c(CC(N)=O)nc2c1` reads 24.8%; that for `NC(=O)Cc1nc2cc(C(=O)Nc3ccc(Cl)cc3)ccc2[nH]1`, 38.4%.
As to `NC(=O)Cc1nc2cc(OCc3cccc(Cl)c3)ccc2[nH]1`, the inhibition at 1 µM in test [1] stood at 67.3%. Besides, in test [2], the IC50 stood at 292 nM.
Regarding `Cc1ccccc1NC(=O)c1ccc2[nH]c(CC(N)=O)nc2c1`, in test [1], the inhibition at 1 µM stood at 31.8%.
As to `NC(=O)Cc1nc2cc(OCc3ccccc3F)ccc2[nH]1`, the inhibition at 1 µM in test [1] stood at 10.1%.
On the same count and under the same terms, next, `NC(=O)Cc1nc2cc(C(=O)Nc3ccc(F)cc3)ccc2[nH]1`: 44.4%.
In the case of `NC(=O)Cc1nc2cc(C(=O)Nc3ccccc3)ccc2[nH]1`, in test [1], the inhibition at 1 µM was 29.9%.
`Cc1cccc(COc2ccc3[nH]c(CC(N)=O)nc3c2)c1`: the inhibition at 1 µM in test [1] is 52.7%. For the same compound, the IC50 in test [2] was determined as 614 nM.
For `COc1cccc(COc2ccc3[nH]c(CC(N)=O)nc3c2)c1`, the inhibition at 1 µM in test [1] was 5.84%.
For `Cc1ccc(COc2ccc3[nH]c(CC(N)=O)nc3c2)cc1`, in test [1], the inhibition at 1 µM is 8.29%.
Turning to `NC(=O)Cc1nc2cc(OCc3cccc(F)c3)ccc2[nH]1`, in test [1], the inhibition at 1 µM came to 67.5%. For the same compound, the IC50 in test [2] turned out to be 126 nM; in test [3] it was 49900 nM.
As to `NC(=O)Cc1nc2cc(C(=O)Nc3ccccc3F)ccc2[nH]1`, in test [1], the inhibition at 1 µM stood at 44%.
Regarding `COc1cccc(NC(=O)c2ccc3[nH]c(CC(N)=O)nc3c2)c1`, the inhibition at 1 µM in test [1] was 34.6%.
For `Cc1cccc(NC(=O)c2ccc3[nH]c(CC(N)=O)nc3c2)c1C`, the inhibition at 1 µM in test [1] was determined as 27.2%.
On to `NC(=O)Cc1nc2cc(OCc3ccccc3)ccc2[nH]1`, for which the inhibition at 1 µM in test [1] was 14.3%.
Turning to `COc1ccc2[nH]c(CC(N)=O)nc2c1`, in test [1], the inhibition at 1 µM was determined as 0.93%.
For `Cc1ccc(NC(=O)c2ccc3[nH]c(CC(N)=O)nc3c2)cc1`, in test [1], the inhibition at 1 µM stood at 29.6%.
Regarding `C#CCN(C)Cc1ccccc1` [PARGYLINE], the inhibition at 1 µM in test [1] stood at 62.9%.
Still for that read-out and setting: the result for `Cc1ccccc1COc1ccc2[nH]c(CC(N)=O)nc2c1` reads 5.6%.
Still for that read-out and setting: the result for `Cc1cccc(NC(=O)c2ccc3[nH]c(CC(N)=O)nc3c2)c1` reads 33.7%.
On to `NC(=O)Cc1nc2cc(OCc3ccc(Cl)cc3)ccc2[nH]1`, for which the inhibition at 1 µM in test [1] is 58.5%. The IC50 is 443 nM in test [2] and 31300 nM in test [3].
With `NC(=O)Cc1nc2cc(OCc3ccccc3Cl)ccc2[nH]1`, in test [1], the inhibition at 1 µM worked out at 8.15%.
As for `Cc1nc2cc(OCc3cccc(F)c3)ccc2[nH]1`, in test [1], the inhibition at 1 µM worked out at 2.8%.
On to `Cc1ccc(NC(=O)c2ccc3[nH]c(CC(N)=O)nc3c2)cc1C`, for which, in test [1], the inhibition at 1 µM came to 31.3%.

Broadly, the IC50 is the midpoint of a concentration-inhibition curve. Higher therefore signals weaker potency in that assay.
